ChEMBL document CHEMBL4152347 (J Med Chem, 2018)
≈ marks a conversion by molar mass, not a printed value.

Columns and labels:
[1] = AUC (0 to infinity) in CD1 mouse at 5 mg/kg, po administered via gavage; assay type: ADME, organism-based; parameters: dose 5 mg/kg, time infinity, route oral; conditions: in vivo
[2] = Half life in mouse liver microsomes at 0.5 uM after 1 hr in presence of NADPH by LC-MS/MS analysis; assay type: ADME, microsome
[3] = AUC (0 to infinity) in Sprague-Dawley rat at 5 mg/kg, po treated with 10 mg/kg elacridar immediately after compound dosing; assay type: ADME, organism-based; parameters: dose 5 mg/kg, route oral, time infinity; conditions: in vivo, with elacridar 10 mg/kg
[4] = Total plasma clearance in Sprague-Dawley rat at 1 mg/kg, iv; assay type: ADME, organism-based
[5] = Cmax in Sprague-Dawley rat at 5 mg/kg, po; assay type: ADME, organism-based; parameters: dose 5 mg/kg, route oral; conditions: in vivo
[6] = system: Canis familiaris; test: Oral bioavailability in beagle dog at 5 mg/kg administered via gavage as microsuspension along with high fat meal; assay type: ADME, organism-based, Canis lupus familiaris; conditions: in vivo
[7] = system: Canis familiaris; test: AUC (0 to infinity) in beagle dog at 1 mg/kg, iv; assay type: ADME, organism-based, Canis lupus familiaris; parameters: dose 1 mg/kg, route intravenous, time infinity; conditions: in vivo
[8] = target: Cytochrome P450 3A4 (Homo sapiens, UniProt P08684); test: Drug metabolism assessed as recombinant CYP3A4 (unknown origin)-mediated oxidative metabolism; assay type: ADME; conditions: recombinant enzyme
[9] = AUC (0 to infinity) in MDR1 a/b knockout mouse at 5 mg/kg, po administered via gavage; assay type: ADME, organism-based; parameters: dose 5 mg/kg, time infinity, route oral; conditions: in vivo
[10] = Tmax in Sprague-Dawley rat at 5 mg/kg, po treated with 10 mg/kg elacridar immediately after compound dosing; assay type: ADME, organism-based; conditions: in vivo, with elacridar 10 mg/kg
[11] = AUC (0 to infinity) in beagle dog at 5 mg/kg, po administered via gavage as microsuspension pre-treated with 6 ug/kg, im pentagastrin 15 to 30 mins before compound dosing; assay type: ADME, organism-based, Canis lupus familiaris; conditions: in vivo
[12] = system: Salmonella typhimurium; test: Mutagenicity in Salmonella typhimurium TA98 in absence of Aroclor 1254-induced rat liver S9 fraction at up to 1600 ug/plate; assay type: toxicity, organism-based; conditions: salmonella enterica subsp. enterica serovar typhimurium
[13] = Cmax in beagle dog at 5 mg/kg, po administered via gavage as microsuspension pre-treated with 40 mg famotidine in capsule form 1 hr before compound dosing; assay type: ADME, organism-based, Canis lupus familiaris; parameters: dose 5 mg/kg, route oral; conditions: in vivo
[14] = AUC (0 to infinity) in beagle dog at 5 mg/kg, po administered via gavage as microsuspension pre-treated with 40 mg famotidine in capsule form 1 hr before compound dosing; assay type: ADME, organism-based, Canis lupus familiaris; parameters: dose 5 mg/kg, time infinity, route oral; conditions: in vivo
[15] = Protein binding in mouse serum at 53 nM after 1 hr by ultracentrifugation assay; assay type: ADME, cell-free; conditions: read-out: PB (converted)
[16] = Cmax in cynomolgus monkey at 5 mg/kg, po administered via gavage; assay type: ADME, organism-based, Macaca fascicularis; parameters: dose 5 mg/kg, route oral; conditions: in vivo
[17] = target: Human immunodeficiency virus type 1 Gag protein (Human immunodeficiency virus 1) (UniProt Q77YG1)
Description: Binding affinity to wild type HIV1 gag polyprotein containing viral like particle assessed as dissociation half life

[18] = Volume of distribution at steady state in CD1 mouse at 1 mg/kg, iv; assay type: ADME, organism-based; conditions: in vivo, read-out: Vdss
[19] = Half life in dog liver microsomes at 0.5 uM after 1 hr in presence of NADPH by LC-MS/MS analysis; assay type: ADME, Canis lupus familiaris, microsome
[20] = physchem; conditions: aqueous
Description: Aqueous solubility of the compound

[21] = system: Canis familiaris; test: Half life in beagle dog at 1 mg/kg, iv; assay type: ADME, organism-based, Canis lupus familiaris; conditions: in vivo
[22] = Protein binding in cynomolgus monkey serum at 53 nM after 1 hr by ultracentrifugation assay; assay type: ADME, cell-free, Macaca fascicularis; conditions: read-out: PB (converted)
[23] = system: Salmonella typhimurium; test: Mutagenicity in Salmonella typhimurium TA98 in presence of Aroclor 1254-induced rat liver S9 fraction at up to 1600 ug/plate; assay type: toxicity, organism-based; conditions: salmonella enterica subsp. enterica serovar typhimurium
[24] = in vitro; conditions: rat, liver microsomes
Description: Half life in rat liver microsomes at 0.5 uM after 1 hr in presence of NADPH by LC-MS/MS analysis

[25] = Tmax in beagle dog at 5 mg/kg, po administered via gavage as microsuspension pre-treated with 40 mg famotidine in capsule form 1 hr before compound dosing; assay type: ADME, organism-based, Canis lupus familiaris; conditions: in vivo
[26] = Half life in rat hepatocytes at 0.5 uM after 1 hr in presence of NADPH by LC-MS/MS analysis; assay type: ADME, cell-based, Hepatocyte
[27] = Oral bioavailability in Sprague-Dawley rat at 5 mg/kg treated with 10 mg/kg elacridar immediately after compound dosing; assay type: ADME, organism-based; conditions: in vivo, with elacridar 10 mg/kg
[28] = Oral bioavailability in beagle dog at 5 mg/kg administered via gavage as microsuspension pre-treated with 40 mg famotidine in capsule form 1 hr before compound dosing; assay type: ADME, organism-based, Canis lupus familiaris; conditions: in vivo
[29] = Cmax in Sprague-Dawley rat at 5 mg/kg, po treated with 10 mg/kg elacridar immediately after compound dosing; assay type: ADME, organism-based; parameters: dose 5 mg/kg, route oral; conditions: in vivo, with elacridar 10 mg/kg
[30] = target: Gag-Pol polyprotein (Human immunodeficiency virus type 1 group M subtype B (isolate HXB2)(HIV-1)) (UniProt P04585); conditions: Human immunodeficiency virus 1
Description: Binding affinity to HIV1 gag polyprotein delta V370 mutant containing viral like particle assessed as dissociation half life

[31] = target: Gag-Pol polyprotein (Human immunodeficiency virus type 1 group M subtype B (isolate HXB2)(HIV-1), UniProt P04585)
Description: Binding affinity to HIV1 gag polyprotein delta V370 mutant containing viral like particle

[32] = in vitro; conditions: human, liver microsomes
Description: Half life in human liver microsomes at 0.5 uM after 1 hr in presence of NADPH by LC-MS/MS analysis

[33] = Protein binding in human serum at 53 nM after 1 hr by ultracentrifugation assay; assay type: ADME, cell-free; conditions: read-out: PB (converted)
[34] = Oral bioavailability in cynomolgus monkey at 5 mg/kg administered via gavage; assay type: ADME, organism-based, Macaca fascicularis; conditions: in vivo
[35] = Tmax in MDR1 a/b knockout mouse at 5 mg/kg, po administered via gavage; assay type: ADME, organism-based; conditions: in vivo
[36] = Half life in mouse hepatocytes at 0.5 uM after 1 hr in presence of NADPH by LC-MS/MS analysis; assay type: ADME, cell-based, Hepatocyte
[37] = Tmax in cynomolgus monkey at 5 mg/kg, po administered via gavage; assay type: ADME, organism-based, Macaca fascicularis; conditions: in vivo
[38] = in vitro; conditions: human, MT2 cells
Description: Cytotoxicity against human MT2 cells assessed as reduction in cell viability

[39] = Volume of distribution at steady state in cynomolgus monkey at 1 mg/kg, iv; assay type: ADME, organism-based, Macaca fascicularis; conditions: in vivo, read-out: Vdss
[40] = system: Salmonella typhimurium; test: Mutagenicity in Salmonella typhimurium TA100 in presence of Aroclor 1254-induced rat liver S9 fraction at up to 1600 ug/plate; assay type: toxicity, organism-based; conditions: salmonella enterica subsp. enterica serovar typhimurium
[41] = AUC (0 to infinity) in cynomolgus monkey at 1 mg/kg, iv; assay type: ADME, organism-based, Macaca fascicularis; parameters: dose 1 mg/kg, time infinity, route intravenous; conditions: in vivo
[42] = AUC (0 to infinity) in Sprague-Dawley rat at 5 mg/kg, id; assay type: ADME, organism-based; parameters: dose 5 mg/kg, time infinity; conditions: in vivo
[43] = system: Human immunodeficiency virus 1; test: microbe, parasite or virus in culture
Description: Antiviral activity against HIV1 expressing gag A364V mutant

[44] = Total plasma clearance in cynomolgus monkey at 1 mg/kg, iv; assay type: ADME, organism-based, Macaca fascicularis
[45] = AUC (0 to infinity) in cynomolgus monkey at 5 mg/kg, po administered via gavage; assay type: ADME, organism-based, Macaca fascicularis; parameters: dose 5 mg/kg, route oral, time infinity; conditions: in vivo
[46] = Bioavailability in Sprague-Dawley rat at 5 mg/kg, id; assay type: ADME, organism-based; conditions: in vivo
[47] = Stability of the compound in human plasma at 1 uM after 2 hrs by LC-MS/MS analysis; assay type: ADME, cell-free
[48] = system: Canis familiaris; test: Tmax in beagle dog at 1 mg/kg, iv; assay type: ADME, organism-based, Canis lupus familiaris; conditions: in vivo
[49] = Cmax in Sprague-Dawley rat at 5 mg/kg, id; assay type: ADME, organism-based; parameters: dose 5 mg/kg; conditions: in vivo
[50] = in vivo; conditions: Sprague-Dawley, rat, po, 5 mg/kg
[51] = Half life in dog hepatocytes at 0.5 uM after 1 hr in presence of NADPH by LC-MS/MS analysis; assay type: ADME, cell-based, Canis lupus familiaris, Hepatocyte
[52] = Solubility of compound in fed state simulated intestinal fluid at pH 5; assay type: physicochemical

Cytochrome P450 3A4, sequence (P08684 whole entry): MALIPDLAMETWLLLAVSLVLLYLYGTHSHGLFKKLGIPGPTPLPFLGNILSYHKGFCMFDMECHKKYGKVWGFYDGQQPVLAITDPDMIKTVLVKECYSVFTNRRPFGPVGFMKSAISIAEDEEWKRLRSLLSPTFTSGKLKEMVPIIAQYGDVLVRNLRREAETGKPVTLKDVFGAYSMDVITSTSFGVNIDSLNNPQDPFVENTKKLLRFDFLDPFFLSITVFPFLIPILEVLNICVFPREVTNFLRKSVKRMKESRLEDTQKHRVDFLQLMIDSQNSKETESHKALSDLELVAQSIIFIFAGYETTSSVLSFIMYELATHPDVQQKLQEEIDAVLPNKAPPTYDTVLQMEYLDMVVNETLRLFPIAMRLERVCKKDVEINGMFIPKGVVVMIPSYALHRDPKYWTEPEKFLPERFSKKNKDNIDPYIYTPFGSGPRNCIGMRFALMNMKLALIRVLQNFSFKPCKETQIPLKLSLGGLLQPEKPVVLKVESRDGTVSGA

## C=C(C)[C@@H]1CC[C@]2(NCCN3CCS(=O)(=O)CC3)CC[C@]3(C)[C@H](CC[C@@H]4[C@@]5(C)CC=C(c6ccc(C(=O)O)cc6)C(C)(C)[C@@H]5CC[C@]43C)[C@@H]12 [BMS-955176]
[1]
  AUC(0-inf): 28.9 µM·h
[2]
  half-life at 0.5 µM: > 2 h
[3]
  AUC(0-inf): 47.4 µM·h
[4]
  clearance: 2.2 mL/min/kg
[5]
  Cmax: 1200 nM
[6]
  F: 67%
[7]
  AUC: 31.7 µM·h
[8]
  Drug metabolism: Metabolite_Detected
[9]
  AUC(0-inf): 65.5 µM·h
[10]
  Tmax: 7.3 h
[11]
  AUC(0-inf): 276 µM·h
[12]
  Activity: Non-Toxic
[13]
  Cmax: 4040 nM
[14]
  AUC(0-inf): 236 µM·h
[15]
  fraction unbound at 1 h, 0.053 µM: 0.106
[16]
  Cmax: 62 nM
[17]
  T1/2: 0.683 h
[18]
  Vd: 0.82 L/kg
[19]
  half-life at 0.5 µM: > 2 h
[20]
  solubility: < 1 µg/mL
[21]
  t1/2: 7.8 min
[22]
  fraction unbound at 1 h, 0.053 µM: 0.216
[23]
  Activity: Non-Toxic
[24]
  half-life at 1 h, 0.5 µM: > 2 h
[25]
  Tmax: 13.5 h
[26]
  half-life at 0.5 µM: > 2 h
[27]
  bioavailability: 63%
[28]
  bioavailability: 26%
[29]
  Cmax: 1800 nM
[30]
  T1/2: 0.767 h
[31]
  Kd: 33.6 nM
[32]
  half-life at 1 h, 0.5 µM: > 2 h
[33]
  fraction unbound at 1 h, 0.053 µM: 0.139
[34]
  bioavailability: 4%
[35]
  Tmax: 3 h
[36]
  half-life at 0.5 µM: > 2 h
[37]
  Tmax: 3.3 h
[38]
  CC50: 9200 nM
[39]
  Vd: 0.43 L/kg
[40]
  Activity: Non-Toxic
[41]
  AUC(0-inf): 13.6 µM·h
[42]
  AUC(0-inf): 19.9 µM·h
[43]
  EC50: 1480 nM
[44]
  clearance: 1.9 mL/min/kg
[45]
  AUC(0-inf): 1 µM·h
[46]
  bioavailability: 36%
[47]
  Stability: Stable
[48]
  Tmax: 187 h
[49]
  Cmax: 1700 nM
[50]
  AUC(0-t) at 24 h: 14.2 µM·h
[51]
  half-life at 0.5 µM: > 2 h
[52]
  solubility: 1020 µg/mL (≈ 1480 µM)
